Where a name gives a salt, the structure may show the parent alone.
Tested on: patients with type II diabetes
Assay: Clinical study on the combination of HMS5552 and metformin hydrochloride: blood glucose after the meal
Assay type: in vivo, human
Settings: 13 type II diabetes patients; oral; metformin hydrochloride 500 mg (day 3), 500 mg + HMS5552 50 mg (day 8), HMS5552 50 mg (day 13); meal 30 minutes after administration
Description: 13 patients with type II diabetes were enrolled, who have been given a stable dose of metformin hydrochloride at 1000 mg/day for at least 14 days at the time of enrollment. On the 1st and 2nd day of the study, 500 mg of metformin hydrochloride was given orally daily both in the morning and in the evening; on the 3rd day, 500 mg of metformin hydrochloride was given once in the morning; on each day of the 4th to 7th day, 500 mg of metformin hydrochloride and 50 mg of HMS5552 were given daily both in the morning and in the evening; on the 8th day, 500 mg of metformin hydrochloride and 50 mg of HMS5552 were given once in the morning; on each day of 9th to 12th day, 50 mg of HMS5552 was given orally daily both in the morning and in the evening; and on the 13th day, 50 mg of HMS5552 was given once in the morning. Meals were taken 30 minutes after each administration of the test drugs.
Plasma samples were collected after administration on the 3rd, 8th and 13th day, and the blood glucose concentrations were analyzed.

SMILES	area under the curve for blood glucose between 0 and 4 hours after the meal (AUECO-4h) [mg·h/dL]
CC(C)C[C@@H](C(=O)Nc1ccn(C[C@@H](O)CO)n1)N1CC(Oc2ccccc2Cl)=CC1=O [HMS5552, (S)-2-[4-(2-chloro-phenoxy)-2-oxo-2,5-dihydro-pyrrol-1-yl]-4-methyl-pentanoic acid [1-((R)-2,3-dihydroxy-propyl)-1H-pyrazol-3-yl]-amide]	72.96
CN(C)C(=N)N=C(N)N [metformin, metformin hydrochloride]	110.2

Reference: patent US12318366B2, “Pharmaceutical combination and composition, and combination preparation containing glucokinase activator and biguanide hypoglycemic drug as well as preparation method and use thereof” (HUA Medicine (Shanghai) Ltd., priority 2018, dated 2025)
